Patent US8329739B2, “Phenylimidazole compounds” (Otsuka Pharmaceutical Factory, Inc., priority 2009, dated 2012)

How the values were obtained:
LPL (lipoprotein lipase) = target: T1, LPL (lipoprotein lipase) (Mus musculus, UniProt P11152); experiment: Confirmation test of LPL activation effect in mouse skeletal muscle cells (C2C12 cells); type: cell-based; conditions: 8 hours exposure, vs control group
T1 construct: endogenous in cells; host or cells: C2C12 cells, differentiated
T1 sequence (P11152 28-474): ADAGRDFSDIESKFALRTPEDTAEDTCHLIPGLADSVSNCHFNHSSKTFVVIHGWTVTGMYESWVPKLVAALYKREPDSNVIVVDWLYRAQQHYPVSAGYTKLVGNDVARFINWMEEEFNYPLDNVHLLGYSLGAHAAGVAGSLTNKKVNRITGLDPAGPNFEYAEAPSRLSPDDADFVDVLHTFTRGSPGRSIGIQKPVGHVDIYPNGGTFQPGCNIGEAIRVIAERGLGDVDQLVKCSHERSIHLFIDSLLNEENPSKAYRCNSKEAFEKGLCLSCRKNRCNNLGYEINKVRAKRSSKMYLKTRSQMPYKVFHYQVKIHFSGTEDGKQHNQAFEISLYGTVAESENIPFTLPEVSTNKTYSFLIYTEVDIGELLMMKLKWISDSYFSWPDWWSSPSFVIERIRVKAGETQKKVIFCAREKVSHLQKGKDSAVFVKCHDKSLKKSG
Protocol: Human skeletal muscle cells (human skeletal muscle myoblasts) or mouse skeletal muscle cells (C2C12 cells) that were seeded onto plates, cultured, and differentiated were exposed to a 0.3% dimethyl sulfoxide-containing culture medium in which the compound of the present invention was dissolved (concentration: 10 μM or 30 μM). The medium was removed 8 hours after exposure, 10 mM of Tris-HCl buffer (150 mM NaCl, 10 μ/mL; containing heparin sodium) was added to the cells, and the cells were incubated at 37° C. in the presence of 5% CO2 for 10 minutes. LPL activity in the supernatant was measured using an LPL activity assay kit (made by Roar Biomedical Inc.). LPL activity was evaluated based on the increase in fluorescence intensity 10 to 70 minutes after mixing the supernatant with the LPL substrate. The mean value of the increase in fluorescence intensity of the cells exposed to a 0.3% dimethyl sulfoxide-containing culture medium […] was used as mean value of the control group. Note that the compounds of Examples 18, 19, 32, 45 and 57 were tested using human skeletal muscle cells, and other compounds were tested using mouse skeletal muscle cells. The rate of increase (%) was calculated from the measured values of LPL activity in the control group and the experimental group, according to the following formula. Rate of increase in LPL activity (%)=[(mean value of the experimental group)−(mean value of the control group)]/(mean value of the control group)×100

SMILES	melting point [°C]	Rate of increase in LPL activity (LPL (lipoprotein lipase); amount of addition 10 μM) [%]	Rate of increase in LPL activity (LPL (lipoprotein lipase); amount of addition 30 μM) [%]
COc1cc(OCc2ccc(C#N)cc2)ccc1-c1c[nH]c(-c2ccsc2)n1 [Example 65]	183 to 186	24	46
COc1cc(-c2c[nH]c(-c3ccsc3)n2)ccc1OCc1ccc(C#N)cc1 [Example 66]	176 to 180	24	32
COc1cc(OCc2ccc(Br)cc2F)ccc1-c1c[nH]c(-c2ccsc2)n1.Cl [Example 68]	247 to 249	10	289
COc1cc(-c2c[nH]c(-c3ccsc3)n2)ccc1OCc1ccc(Br)cc1F.Cl [Example 69]	251 to 252	52	142
COc1cc(-c2c[nH]c(-c3ccsc3)n2)ccc1OCc1ccc(Cl)cc1 [Example 71]	197 to 201	42	114
COc1cc(-c2c[nH]c(-c3ccsc3)n2)ccc1OCc1cccc(C#N)c1.Cl [Example 72]	224 to 227	70	123
COc1cc(-c2c[nH]c(-c3ccsc3)n2)ccc1OCc1ccccc1C#N.Cl [Example 73]	236 to 237	55	108
COc1cc(-c2c[nH]c(-c3cccc(C(F)(F)F)c3)n2)ccc1OCc1ccc(C#N)cc1.Cl [Example 75]	231 to 232	43	89
COc1cc(OCc2ccc(C#N)cc2)ccc1-c1c[nH]c(-c2ccc(Cl)cc2)n1 [Example 76]	186 to 187	115	263
COc1cc(-c2c[nH]c(-c3ccc(Cl)cc3)n2)ccc1OCc1ccc(C#N)cc1 [Example 77]	231 to 232	54	133
COc1cc(OCc2ccc(Cl)cc2)ccc1-c1c[nH]c(-c2cccc(F)c2)n1.Cl [Example 78]	231 to 232	14	60
COc1cc(-c2c[nH]c(-c3cccc(F)c3)n2)ccc1OCc1ccc(Cl)cc1.Cl [Example 79]	235 to 237	16	64
COc1cc(OCc2ccc(Br)cc2F)ccc1-c1c[nH]c(-c2ccc(Cl)cc2)n1 [Example 80]	191 to 195	21	302
COc1cc(OCc2ccc(Br)cc2F)ccc1-c1c[nH]c(-c2ccccc2C(F)(F)F)n1.Cl [Example 81]	224 to 228	32	89
COc1cc(OCc2ccc(Cl)cc2)ccc1-c1c[nH]c(-c2ccc(Cl)cc2)n1 [Example 82]	181 to 184	27	86
COc1cc(OCc2ccc(Cl)cc2)ccc1-c1c[nH]c(-c2ccccc2C(F)(F)F)n1 [Example 83]	158 to 161	29	100
COc1cc(OCc2ccc(C#N)cc2)ccc1-c1c[nH]c(-c2ccc(C)cc2)n1 [Example 85]	195 to 198	10	99

SMILES	melting point [°C]	Rate of increase in LPL activity (LPL (lipoprotein lipase); amount of addition 10 μM) [%]	Rate of increase in LPL activity (LPL (lipoprotein lipase); amount of addition 30 μM) [%]
COc1ccc(-c2nc(-c3ccc(OCc4ccc(Br)cc4F)cc3OC)c[nH]2)cc1.Cl [Example 86]	> 250	40	375
COc1ccc(-c2nc(-c3ccc(OCc4ccc(C#N)cc4)cc3OC)c[nH]2)cc1.Cl [Example 87]	183 to 186	23	144
COc1cc(OCc2ccc(Br)cc2F)ccc1-c1c[nH]c(-c2cccc(Cl)c2)n1.Cl [Example 88]	231 to 236	12	98
COc1cc(OCc2ccc(Br)cc2F)ccc1-c1c[nH]c(-c2ccc(C(C)(C)C)cc2)n1 [Example 90]	177 to 180	18	130
COc1cc(OCc2ccc(Br)cc2F)ccc1-c1c[nH]c(-c2cc(Cl)cc(Cl)c2)n1 [Example 91]	260 to 265	28	95
COC(=O)c1ccc(-c2nc(-c3ccc(OCc4ccc(Br)cc4F)cc3OC)c[nH]2)cc1 [Example 92]	158 to 159	42	123
COc1ccc(-c2nc(-c3ccc(OCc4ccc(Br)cc4F)cc3OC)c[nH]2)cc1OC.Cl [Example 93]	255 to 256	36	174
COc1cc(OCc2ccc(Br)cc2F)ccc1-c1c[nH]c(-c2ccc(C(=O)O)cc2)n1.Cl [Example 94]	> 250	9	15
COc1cc(OCc2ccc(C#N)cc2)ccc1-c1c[nH]c(-c2ccc(F)c(F)c2)n1 [Example 96]	173 to 176	27	96
COc1cc(OCc2ccc(C#N)cc2)ccc1-c1c[nH]c(-c2cccc(Cl)c2)n1 [Example 97]	154 to 157	27	63
COc1cccc(-c2nc(-c3ccc(OCc4ccc(Br)cc4F)cc3OC)c[nH]2)c1.Cl [Example 99]	255 to 258	14	90
COc1cccc(-c2nc(-c3ccc(OCc4ccc(C#N)cc4)cc3OC)c[nH]2)c1 [Example 100]	139 to 142	12	43
COc1cc(OCc2ccc(Br)cc2F)ccc1-c1c[nH]c(-c2ccc(Cl)c(Cl)c2)n1 [Example 102]	260 to 262	44	88
COc1cc(OCc2ccc(Br)cc2F)ccc1-c1c[nH]c(-c2ccc(F)c(Cl)c2)n1 [Example 103]	237 to 243	30	92
COc1ccc(-c2nc(-c3ccc(OCc4ccc(Cl)cc4)cc3OC)c[nH]2)cc1 [Example 104]	170 to 173	74	365
COc1cc(OCc2ccccc2)ccc1-c1c[nH]c(-c2ccc(C)cc2)n1 [Example 109]	219 to 222	12	77
